In ChEMBL document CHEMBL5365500, “Development and Antibacterial Properties of 4-[4-(Anilinomethyl)-3-phenylpyrazol-1-yl]benzoic Acid Derivatives as Fatty Acid Biosynthesis Inhibitors” (J Med Chem, 2023) one finds MIC data, which are given here for 10 molecules.

Structures are written as SMILES. ≈ marks a conversion by molar mass, not a printed value. Where only a bound is given, the exact number is not on record here.

What all share (assay type): functional
Settings in all cases: time 20-24 hrs

For one test, the system named is Bacillus subtilis. In words: Antimicrobial activity against antibiotic-resistant Bacillus subtilis ATCC 6623 assessed as inhibition of visible growth measured after 20 to 24 hrs incubation by CLSI method.
Test [1] has as its system Staphylococcus aureus. The test can be described thus: Antimicrobial activity against antibiotic-resistant Staphylococcus aureus ATCC 33592 assessed as inhibition of visible growth measured after 20 to 24 hrs incubation by CLSI method.
For test [2], the system named is Enterococcus faecalis. The test can be described thus: Antimicrobial activity against antibiotic-resistant Enterococcus faecalis ATCC 51299 assessed as inhibition of visible growth measured after 20 to 24 hrs incubation by CLSI method.
The test system of a further test is Enterococcus faecium. In words: Antimicrobial activity against antibiotic-resistant Enterococcus faecium ATCC 700221 assessed as inhibition of visible growth measured after 20 to 24 hrs incubation by CLSI method.
The subject of test [3] is Staphylococcus aureus. In words: Antimicrobial activity against antibiotic-resistant Staphylococcus aureus ATCC BAA-2312 assessed as inhibition of visible growth measured after 20 to 24 hrs incubation by CLSI method.
Test [4] has as its system Staphylococcus epidermidis. The test can be described thus: Antimicrobial activity against antibiotic-resistant Staphylococcus epidermidis ATCC 700296 assessed as inhibition of visible growth measured after 20 to 24 hrs incubation by CLSI method.
For test [5], the system named is Staphylococcus aureus. In words: Antimicrobial activity against Staphylococcus aureus ATCC 25923 assessed as inhibition of visible growth measured after 20 to 24 hrs incubation by CLSI method.
Test [6] concerns Enterococcus faecalis. In words: Antimicrobial activity against antibiotic-susceptible Enterococcus faecalis ATCC 29212 assessed as inhibition of visible growth measured after 20 to 24 hrs incubation by CLSI method.
Test [7] relates to Staphylococcus aureus. The test can be described thus: Antimicrobial activity against antibiotic-resistant Staphylococcus aureus ATCC 700699 assessed as inhibition of visible growth measured after 20 to 24 hrs incubation by CLSI method.
The test system of test [8] is Staphylococcus aureus. The test can be described thus: Antimicrobial activity against antibiotic-resistant Staphylococcus aureus ATCC 33591 assessed as inhibition of visible growth measured after 20 to 24 hrs incubation by CLSI method.

As for `O=C(O)c1ccc(-n2cc(CNc3ccc(Oc4ccccc4)cc3)c(-c3ccc(F)c(F)c3)n2)cc1`, the MIC – broadly, the smallest concentration in the dilution series that meets the test's criterion for growth inhibition – in the test with Bacillus subtilis came out at 1 µg/mL (≈ 2.01 µM); in the test with Staphylococcus aureus [1] it was 2 µg/mL (≈ 4.02 µM); with Enterococcus faecalis [2] it was 4 µg/mL (≈ 8.04 µM); in the test with Enterococcus faecium it was 2 µg/mL (≈ 4.02 µM); in the test with Staphylococcus aureus [3] it was 1 µg/mL (≈ 2.01 µM); in test [4], 2 µg/mL (≈ 4.02 µM). Besides, the MIC in the test on Staphylococcus aureus [5] worked out at 1 µg/mL (≈ 2.01 µM); in the test on Enterococcus faecalis [6], 4 µg/mL (≈ 8.04 µM); with Staphylococcus aureus [7] it was 2 µg/mL (≈ 4.02 µM); in the test on Staphylococcus aureus [8], 1 µg/mL (≈ 2.01 µM).
On to `O=C(O)c1ccc(-n2cc(CNc3cc(Cl)cc(C(F)(F)F)c3)c(-c3cccc(F)c3)n2)cc1`, for which the MIC with Bacillus subtilis is 0.5 µg/mL (≈ 1.02 µM); with Staphylococcus aureus [1], 1 µg/mL (≈ 2.04 µM); with Enterococcus faecalis [2], 2 µg/mL (≈ 4.08 µM); in the test on Enterococcus faecium, 2 µg/mL (≈ 4.08 µM); in the test with Staphylococcus aureus [3], 1 µg/mL (≈ 2.04 µM); in test [4] it was 4 µg/mL (≈ 8.17 µM). The MIC in the test with Staphylococcus aureus [5] came out at 2 µg/mL (≈ 4.08 µM); in the test on Enterococcus faecalis [6] it was 4 µg/mL (≈ 8.17 µM); with Staphylococcus aureus [7], 2 µg/mL (≈ 4.08 µM); in the test on Staphylococcus aureus [8], 1 µg/mL (≈ 2.04 µM).
Take `O=C(O)c1ccc(-n2cc(CNc3ccc(F)c(Cl)c3)c(-c3ccc(F)c(F)c3)n2)cc1`: the MIC came to 2 µg/mL (≈ 4.37 µM) in the test on Bacillus subtilis; 8 µg/mL (≈ 17.5 µM) with Staphylococcus aureus [1]; 32 µg/mL (≈ 69.9 µM) in the test with Enterococcus faecalis [2]; 8 µg/mL (≈ 17.5 µM) in the test on Enterococcus faecium; 4 µg/mL (≈ 8.74 µM) in the test on Staphylococcus aureus [3]; 8 µg/mL (≈ 17.5 µM) in test [4]. Besides, the MIC was 8 µg/mL (≈ 17.5 µM) in the test with Staphylococcus aureus [5], 16 µg/mL (≈ 34.9 µM) with Enterococcus faecalis [6], 8 µg/mL (≈ 17.5 µM) in the test on Staphylococcus aureus [7] and 2 µg/mL (≈ 4.37 µM) in the test on Staphylococcus aureus [8].
In the case of `O=C(O)c1ccc(-n2cc(CNc3cccc(C(F)(F)F)c3)c(-c3ccc(F)c(F)c3)n2)cc1`, the MIC came out at 1 µg/mL (≈ 2.11 µM) in the test with Bacillus subtilis; 4 µg/mL (≈ 8.45 µM) in the test with Staphylococcus aureus [1]; 8 µg/mL (≈ 16.9 µM) in the test on Enterococcus faecalis [2]; 4 µg/mL (≈ 8.45 µM) with Enterococcus faecium; 2 µg/mL (≈ 4.22 µM) with Staphylococcus aureus [3]; 8 µg/mL (≈ 16.9 µM) in test [4]. Moreover, the MIC stood at 4 µg/mL (≈ 8.45 µM) in the test with Staphylococcus aureus [5], 8 µg/mL (≈ 16.9 µM) in the test with Enterococcus faecalis [6], 8 µg/mL (≈ 16.9 µM) in the test on Staphylococcus aureus [7] and 1 µg/mL (≈ 2.11 µM) in the test with Staphylococcus aureus [8].
Take `O=C(O)c1ccc(-n2cc(CNc3cc(Cl)cc(Cl)c3)c(-c3ccc(F)cc3)n2)cc1`: the MIC in the test with Bacillus subtilis was found to be 0.5 µg/mL (≈ 1.1 µM); with Staphylococcus aureus [1], 1 µg/mL (≈ 2.19 µM); in the test on Enterococcus faecalis [2], 4 µg/mL (≈ 8.77 µM); in the test on Enterococcus faecium it was 4 µg/mL (≈ 8.77 µM); with Staphylococcus aureus [3], 1 µg/mL (≈ 2.19 µM); in [4] it was 2 µg/mL (≈ 4.38 µM). Moreover, the MIC in the test on Staphylococcus aureus [5] was 1 µg/mL (≈ 2.19 µM); in the test on Enterococcus faecalis [6], 4 µg/mL (≈ 8.77 µM); with Staphylococcus aureus [7], 2 µg/mL (≈ 4.38 µM); with Staphylococcus aureus [8], 1 µg/mL (≈ 2.19 µM).
For the molecule `O=C(O)c1ccc(-n2cc(CNc3ccc(Cl)c(C(F)(F)F)c3)c(-c3ccc(F)c(F)c3)n2)cc1`, the MIC with Bacillus subtilis worked out at 0.5 µg/mL (≈ 0.985 µM); in the test on Staphylococcus aureus [1], 2 µg/mL (≈ 3.94 µM); in the test with Enterococcus faecalis [2] it was 4 µg/mL (≈ 7.88 µM); with Enterococcus faecium it was 2 µg/mL (≈ 3.94 µM); with Staphylococcus aureus [3] it was 1 µg/mL (≈ 1.97 µM); in [4], 4 µg/mL (≈ 7.88 µM). Further, the minimal inhibitory concentration (MIC) in the test with Staphylococcus aureus [5] was 1 µg/mL (≈ 1.97 µM); in the test with Enterococcus faecalis [6], 4 µg/mL (≈ 7.88 µM); with Staphylococcus aureus [7], 2 µg/mL (≈ 3.94 µM); in the test on Staphylococcus aureus [8], 0.5 µg/mL (≈ 0.985 µM).
On to `O=C(O)c1ccc(-n2cc(CNc3ccc(Br)cc3)c(-c3cccc(F)c3)n2)cc1`, for which the MIC in the test with Bacillus subtilis was determined as 4 µg/mL (≈ 8.58 µM); in the test on Staphylococcus aureus [1], 16 µg/mL (≈ 34.3 µM); with Enterococcus faecalis [2], 32 µg/mL (≈ 68.6 µM); with Enterococcus faecium it was 16 µg/mL (≈ 34.3 µM); in the test with Staphylococcus aureus [3], 8 µg/mL (≈ 17.2 µM); in [4], 16 µg/mL (≈ 34.3 µM). Also, the MIC in the test on Staphylococcus aureus [5] stood at 4 µg/mL (≈ 8.58 µM); in the test on Enterococcus faecalis [6], 32 µg/mL (≈ 68.6 µM); in the test on Staphylococcus aureus [7], 16 µg/mL (≈ 34.3 µM); with Staphylococcus aureus [8], 4 µg/mL (≈ 8.58 µM).
As to `O=C(O)c1ccc(-n2cc(CNc3ccc(F)c(Cl)c3F)c(-c3ccc(F)c(F)c3)n2)cc1`, the MIC with Bacillus subtilis was 1 µg/mL (≈ 2.1 µM); in the test on Staphylococcus aureus [1], 4 µg/mL (≈ 8.41 µM); in the test on Enterococcus faecalis [2] it was greater than 32 µg/mL; in the test on Enterococcus faecium it was 4 µg/mL (≈ 8.41 µM); with Staphylococcus aureus [3], 4 µg/mL (≈ 8.41 µM); in test [4] it was 8 µg/mL (≈ 16.8 µM). Also, the minimum inhibitory concentration (MIC) with Staphylococcus aureus [5] is 4 µg/mL (≈ 8.41 µM); in the test with Enterococcus faecalis [6], 16 µg/mL (≈ 33.6 µM); in the test on Staphylococcus aureus [7], 4 µg/mL (≈ 8.41 µM); in the test on Staphylococcus aureus [8], 2 µg/mL (≈ 4.2 µM).
Consider `O=C(O)c1ccc(-n2cc(CNc3ccc(Br)c(Cl)c3)c(-c3cccc(F)c3)n2)cc1`, for which the MIC was 1 µg/mL (≈ 2 µM) with Bacillus subtilis; 1 µg/mL (≈ 2 µM) with Staphylococcus aureus [1]; 4 µg/mL (≈ 7.99 µM) in the test with Enterococcus faecalis [2]; 4 µg/mL (≈ 7.99 µM) with Enterococcus faecium; 1 µg/mL (≈ 2 µM) in the test with Staphylococcus aureus [3]; 4 µg/mL (≈ 7.99 µM) in test [4]. The MIC in the test on Enterococcus faecalis [6] stood at 8 µg/mL (≈ 16 µM); with Staphylococcus aureus [7] it was 2 µg/mL (≈ 3.99 µM); with Staphylococcus aureus [8] it was 1 µg/mL (≈ 2 µM).
Regarding `O=C(O)c1ccc(-n2cc(CNc3cc(Cl)cc(Cl)c3)c(-c3cccc(F)c3)n2)cc1`, the MIC with Bacillus subtilis was found to be 1 µg/mL (≈ 2.19 µM); in the test with Staphylococcus aureus [1], 1 µg/mL (≈ 2.19 µM); in the test on Staphylococcus aureus [3], 1 µg/mL (≈ 2.19 µM); in the test on Staphylococcus aureus [5], 2 µg/mL (≈ 4.38 µM); in the test with Enterococcus faecalis [6], 8 µg/mL (≈ 17.5 µM); in the test on Staphylococcus aureus [7] it was 4 µg/mL (≈ 8.77 µM). Also, the MIC in the test with Staphylococcus aureus [8] was determined as 1 µg/mL (≈ 2.19 µM).
